From patent US20250170266A1 (ZYMEWORKS BC INC., priority 2022, published 2025)
Read-outs that look alike come from different tables or passages of the source.

Tests used:
Type in all cases: cell-based
[1] = test system: Human peripheral blood mononuclear cells (PBMCs); experiment: Human PBMC Assay, cytokine release (HTRF); settings: 24 hours; for EC50: PBMC
Description: Human peripheral blood mononuclear cells (PBMCs) were isolated from fresh Leukopak using magnetic separation. Briefly, erythrocytes and granulocytes were magnetically labeled with Erythrocyte Depletion MicroBeads (Miltenyi Biotec) and Granulocyte Depletion MicroBeads (Miltenyi Biotec), respectively. The cell suspension was loaded onto a Multi-24 Column Block (Miltenyi Biotec) and placed in the magnetic field of a MultiMACS Cell24 Separator Plus (Miltenyi Biotec). The unlabelled PBMCs were collected in the run through. PBMCs were resuspended in CryoStor® CS10 ([…]) and frozen. On the day before the assay, PBMCs were thawed in warm assay buffer (RPMI+10% FBS) and resuspended in assay buffer+10 ng/ml hIL3 (R&D Systems). Cells were rested at 37° C.+5% CO2 overnight. The following day, cells were spun down and resuspended in fresh assay buffer. 300,000 cells were added to each well of plates containing test compound. For test compound preparation, each compound was initially diluted to 1 mM in DMSO and further diluted in assay buffer. A 4-fold 11-point titration starting from 15 μM was performed. Cells were incubated with test compound at 37° C.+5% CO2 for 24 hours before supernatant was harvested. Human interleukin 6 (hIL6), human tumor necrosis factor alpha (hTNFα), and human interferon alpha (hIFNα) were quantified in the supernatant using homogeneous time resolved fluorescence (Cisbio).
(§1) Each assay included a positive control compound (referred to herein as “benchmark,” see, e.g., TABLE 3 below, and taken from International Patent Publication No. WO2017/072662, structure shown below) and a negative control (growth medium). […] The structure of the benchmark compound from International Patent Publication No. WO 2017/072662 is as follows: […]

mTLR7 = molecular target: T1, mTLR7 (Mus musculus, UniProt P58681); experiment: Reporter Gene Assay (RGA), HEK-Blue mTLR7 reporter cells, SEAP readout; settings: overnight incubation, SEAP absorbance 620 nm
T1 construct: host or cells: HEK-Blue mTLR7 reporter cells (HEK293-derived, own knowledge)
T1 sequence (P58681 27-1050): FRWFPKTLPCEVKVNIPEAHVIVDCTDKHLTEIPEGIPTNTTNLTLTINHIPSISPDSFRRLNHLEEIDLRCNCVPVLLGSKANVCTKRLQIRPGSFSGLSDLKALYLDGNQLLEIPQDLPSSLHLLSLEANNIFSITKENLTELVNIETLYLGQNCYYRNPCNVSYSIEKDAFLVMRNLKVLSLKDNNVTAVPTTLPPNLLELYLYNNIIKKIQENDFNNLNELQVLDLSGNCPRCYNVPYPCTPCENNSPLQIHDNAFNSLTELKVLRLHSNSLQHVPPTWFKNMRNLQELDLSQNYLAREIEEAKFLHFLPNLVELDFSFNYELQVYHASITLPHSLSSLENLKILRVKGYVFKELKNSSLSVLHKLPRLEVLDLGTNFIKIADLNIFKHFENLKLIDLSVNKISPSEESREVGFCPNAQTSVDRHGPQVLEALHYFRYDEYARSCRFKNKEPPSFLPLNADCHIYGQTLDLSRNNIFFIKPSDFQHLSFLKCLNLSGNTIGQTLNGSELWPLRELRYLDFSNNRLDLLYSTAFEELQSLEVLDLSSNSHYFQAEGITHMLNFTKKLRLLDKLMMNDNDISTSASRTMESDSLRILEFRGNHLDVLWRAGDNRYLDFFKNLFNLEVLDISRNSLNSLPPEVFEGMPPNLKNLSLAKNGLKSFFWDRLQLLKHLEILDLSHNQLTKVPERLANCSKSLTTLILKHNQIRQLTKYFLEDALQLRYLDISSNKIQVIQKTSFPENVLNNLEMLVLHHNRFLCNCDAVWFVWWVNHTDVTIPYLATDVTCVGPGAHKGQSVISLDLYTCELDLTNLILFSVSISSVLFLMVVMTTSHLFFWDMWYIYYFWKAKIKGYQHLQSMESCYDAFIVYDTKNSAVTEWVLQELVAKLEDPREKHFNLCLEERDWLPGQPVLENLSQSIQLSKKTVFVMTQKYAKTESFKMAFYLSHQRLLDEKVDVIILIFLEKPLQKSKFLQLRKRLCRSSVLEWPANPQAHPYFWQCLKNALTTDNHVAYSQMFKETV
Protocol: (§2) 1.5×10^4 HEK-Blue™ hTLR7 (Invivogen, San Diego, CA) or HEK-Blue™ mTLR7 (Invivogen, San Diego, CA) reporter cells were treated with a titration series of test compound (4-fold titration from […], 11 points). Compounds were initially diluted to 1 mM in DMSO and subsequently serial-diluted in assay media (HEK-Blue™ Detection; Invivogen, San Diego, CA). Cells with test compound were incubated overnight at 37° C.+5% CO2, and the amount of secreted embryonic alkaline phosphatase (SEAP) was determined by measuring absorbance (620 nm) using a Synergy™ H1 microplate reader.
as §1

Mouse splenocytes = experiment: Mouse Splenocyte Assay, cytokine release (HTRF); settings: 24 hours, mIL6 in supernatant; for EC50: Splenocyte, read-out: Splenocyte IL6 EC50
Protocol: Mouse splenocytes were isolated from fresh mouse spleens. Briefly, spleens were harvested from female balb/c nude mice and transferred to a 70 μm cell strainer. The cell strainer was subsequently placed in a 6-well suspension culture plate containing 5 mL media (RPMI+10% FBS). The spleens were crushed against the cell strainer using the flat end of a 10 mL syringe plunger and the cell strainer was washed with 5 mL media. The cell strainer was discarded, and the cell suspension was washed in PBS. Red blood cells were removed using PharmaLyse (BD). The cell suspension was washed in media, resuspended in CryoStor® CS10 ([…]) and frozen. On assay day, mouse splenocytes were thawed in warm assay buffer (RPMI+10% FBS). Cells were spun down and resuspended in fresh assay buffer. 100,000 cells were added to each well of plates containing test compound. For test compound preparation, each compound was initially diluted to 1 mM in DMSO and further diluted in assay buffer. A 4-fold 11-point titration starting from 15 μM was performed. Cells were incubated with test compound at 37° C.+5% CO2 for 24 hours before supernatant was harvested. Murine IL6 (mIL6) and murine TNFα (mTNFα) were quantified in the supernatant using homogeneous time resolved fluorescence (Cisbio).
as §1

hTLR7 = molecular target: T2, hTLR7 (Homo sapiens, UniProt Q9NYK1); experiment: Reporter Gene Assay (RGA), HEK-Blue hTLR7 reporter cells, SEAP readout; settings: overnight incubation, SEAP absorbance 620 nm
T2 construct: host or cells: HEK-Blue hTLR7 reporter cells (HEK293-derived, own knowledge)
T2 sequence (Q9NYK1 27-1049): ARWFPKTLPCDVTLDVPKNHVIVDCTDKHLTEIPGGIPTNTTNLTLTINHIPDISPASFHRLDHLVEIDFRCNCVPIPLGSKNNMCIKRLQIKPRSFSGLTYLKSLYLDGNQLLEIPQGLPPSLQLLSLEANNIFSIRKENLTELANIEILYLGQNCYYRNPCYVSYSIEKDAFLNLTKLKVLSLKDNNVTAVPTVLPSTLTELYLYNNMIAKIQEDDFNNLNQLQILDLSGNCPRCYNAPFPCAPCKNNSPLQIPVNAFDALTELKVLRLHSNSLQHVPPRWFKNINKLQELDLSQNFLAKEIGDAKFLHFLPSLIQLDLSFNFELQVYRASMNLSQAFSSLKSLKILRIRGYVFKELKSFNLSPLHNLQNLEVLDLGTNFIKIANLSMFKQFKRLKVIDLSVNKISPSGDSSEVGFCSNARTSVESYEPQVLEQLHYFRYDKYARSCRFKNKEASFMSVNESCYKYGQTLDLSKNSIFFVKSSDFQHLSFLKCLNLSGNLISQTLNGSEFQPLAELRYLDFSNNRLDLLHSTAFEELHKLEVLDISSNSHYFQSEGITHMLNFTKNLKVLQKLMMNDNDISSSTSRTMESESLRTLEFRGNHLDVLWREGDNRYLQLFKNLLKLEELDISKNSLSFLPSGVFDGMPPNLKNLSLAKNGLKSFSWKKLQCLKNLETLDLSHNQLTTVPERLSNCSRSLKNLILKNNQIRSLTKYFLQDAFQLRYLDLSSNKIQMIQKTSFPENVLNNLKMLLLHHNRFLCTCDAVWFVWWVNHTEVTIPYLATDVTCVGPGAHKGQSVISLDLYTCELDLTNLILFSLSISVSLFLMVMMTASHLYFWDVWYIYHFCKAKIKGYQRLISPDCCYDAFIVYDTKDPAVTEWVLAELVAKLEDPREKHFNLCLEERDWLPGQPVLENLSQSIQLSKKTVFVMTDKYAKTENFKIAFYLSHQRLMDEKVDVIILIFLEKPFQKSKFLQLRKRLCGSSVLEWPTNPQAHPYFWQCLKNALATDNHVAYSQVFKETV
Protocol: as §2, §1

[2] = hIFNα in supernatant, EC50 values approximated and divided into groups, read-out: PBMC IFNa EC50
[3] = hIL6 in supernatant, read-out: PBMC IL6 EC50

Structure (SMILES) | EC50 [1, 2] | EC50 [1, 3] | EC50 (mTLR7) | EC50 (Mouse splenocytes) | EC50 (hTLR7) | PBMC IL6 EC50 (nM) ([1]; hIL6 in supernatant) | Splenocyte IL6 EC50 (nM) (Mouse splenocytes)
CCCCOc1nc(N)c2nc(O)n(Cc3ccc(CNC(CO)[C@@H](C)CC)cc3OC)c2n1 (stereo in doubt) [Compound 161, 6-amino-2-butoxy-9-(4-((((2R,3S)-1-hydroxy-3-methylpentan-2-yl)amino)-methyl)-2-methoxybenzyl)-9H-purin-8-ol] | < 0.1 nM | 16.7 nM | < 0.1 nM | 0.3 nM | < 0.1 nM |  | 
CCCCCNc1nc(N)nc2ccn(Cc3ccc(CN4CCN(CCNC(=O)CC(SCC(N)C(=O)O)C(=O)O)CC4)cc3OC)c12 (stereo not shown) [Benchmark, reference compound] | 1 to 10 nM | 207 nM |  | 222 nM |  |  | 
CCOc1nc(N)c2nc(O)n(Cc3ccc(CN4CCNCC4)cc3OC)c2n1 [Compound 100, 6-amino-2-ethoxy-9-(2-methoxy-4-(piperazin-1-ylmethyl)benzyl)-9H-purin-8-ol] | 1 to 10 nM | 240 nM | 77.9 nM | 2940 nM | 6.3 nM |  | 
CCOc1nc(N)c2nc(O)n(Cc3ccc(CNCC(C)(C)O)cc3OC)c2n1 [Compound 101, 6-amino-2-ethoxy-9-(4-(((2-hydroxy-2-methylpropyl)amino)methyl)-2-methoxybenzyl)-9H-purin-8-ol] | 0.1 to 1 nM | 127 nM | 47.7 nM | 154 nM | 57 nM |  | 
CCOc1nc(N)c2nc(O)n(Cc3ccc(CN(CC)CC)cc3OC)c2n1 [Compound 102, 6-amino-9-(4-((diethylamino)methyl)-2-methoxybenzyl)-2-ethoxy-9H-purin-8-ol] | < 0.1 nM | 69.1 nM | 5 nM | 99.7 nM | 2 nM |  | 
CCOc1nc(N)c2nc(O)n(Cc3ccc(CNCCCCCO)cc3OC)c2n1 [Compound 103, 6-amino-2-ethoxy-9-(4-(((5-hydroxypentyl)amino)methyl)-2-methoxy-benzyl)-9H-purin-8-ol] | 0.1 to 1 nM | 9270 nM | 27.4 nM | 1330 nM | 138 nM |  | 
CCOc1nc(N)c2nc(O)n(Cc3ccc(CNCCCN4CCN(CCCN)CC4)cc3OC)c2n1 [Compound 104, 6-amino-9-(4-(((3-(4-(3-aminopropyl)piperazin-1-yl)propyl)amino)methyl)-2-methoxybenzyl)-2-ethoxy-9H-purin-8-ol] | > 10 nM | 598 nM | 1040 nM | 1360 nM | 1310 nM |  | 
CCOc1nc(N)c2nc(O)n(Cc3ccc(CNCc4ccc(CN)cc4)cc3OC)c2n1 [Compound 105, 6-amino-9-(4-(((4-(aminomethyl)benzyl)amino)methyl)-2-methoxybenzyl)-2-ethoxy-9H-purin-8-ol] | < 0.1 nM | 394 nM | 2.4 nM | 26.2 nM | 7 nM |  | 
CCOc1nc(N)c2nc(O)n(Cc3ccc(CNCCCCN)cc3OC)c2n1 [Compound 106, 6-amino-9-(4-(((4-aminobutyl)amino)methyl)-2-methoxybenzyl)-2-ethoxy-9H-purin-8-ol] | 1 to 10 nM | 688 nM | 94.1 nM | 2060 nM | 348 nM |  | 
CCOc1nc(N)c2nc(O)n(Cc3ccc(CN[C@@H](Cc4ccccc4)C(=O)O)cc3OC)c2n1 [Compound 117, (4-((6-amino-2-ethoxy-8-hydroxy-9H-purin-9-yl)methyl)-3-methoxybenzyl)-L-phenylalanine] | > 10 nM |  |  |  | 13000 nM | inactive | inactive
CCCCOc1nc(N)c2nc(O)n(Cc3ccc(CCN4CCC(CCN)CC4)cc3OC)c2n1 [Compound 178, 6-amino-9-(4-(2-(4-(2-aminoethyl)piperidin-1-yl)ethyl)-2-methoxybenzyl)-2-butoxy-9H-purin-8-ol] | 1 to 10 nM | 284 nM |  | 245 nM | 144 nM |  | 
CCCCOc1nc(N)c2nc(O)n(Cc3ccc(CCN4CCC(N)CC4)cc3OC)c2n1 [Compound 181, 6-amino-9-(4-(2-(4-aminopiperidin-1-yl)ethyl)-2-methoxybenzyl)-2-butoxy-9H-purin-8-ol] | > 10 nM |  |  | 235 nM | 4.5 nM | inactive | 
